Source: US10736909B2, “Use of trehalose for treatment of neurological diseases” (JUNAXO, INC., priority 2016, dated 2020)
Entries after “also recorded” stand apart in the source; their conditions may differ.

Assays:
[1] = system: Chronic MPTP-lesioned mouse; details: 1% in the drinking water; Ferguson et al. 2015; cited from earlier work
[2] = Plasma pharmacokinetics in macaques, 1 and 7 days oral administration; type: in vivo; details: for AUC(0-inf) / Cmax / Tmax / half-life / AUC(0-t): female, monkey, plasma, po, macaque plasma; for AUC(0-t): read-out: AUC0-24h
Protocol: Three female macaques (3.81-4.67 kg) received trehalose (2.67 and 5.34 g/kg/day, oral gavage in sterile water) for 7 days. Plasma samples were collected pre-dose and 15 min, 30 min, 1 h, 2 h, 4 h, 6 h, 12 h and 24 h post-dose on days 1 and 7 and analysed for trehalose levels using a validated LC-MS/MS method and plasma exposure time courses (FIG. 2) and pharmacokinetic parameters were calculated (Table 7).

[3] = Brain and CSF trehalose levels in macaques after two days administration; type: in vivo; details: female, macaque, oral; for concentration at 1 h: 2.67 g/kg for two days
Protocol: In a subsequent step, the same 3 macaques were administered trehalose (2.67 g/kg) for two days. The macaques were then killed 1 h post-administration on day 2 and terminal brain and CSF samples collected. The brain and CSF trehalose levels were 81.3±13.8 ng/g and 562±346.5 ng/ml respectively. Similar to rats, trehalose levels in macaque brain tissue were ˜1% of the plasma level at the corresponding timepoint.

[4] = Extrapolation from animal data to human plasma exposure; details: oral, humans, 2.67 g/kg, extrapolated from rat and macaque data, read-out: trehalose plasma Cmax (estimated)
Protocol: On a dose per body weight basis, trehalose produced very similar plasma and brain levels in rats and macaques (see FIG. 3 and Tables 6 and 7) when dosed with 2.67 g/kg/day. We also know that a trehalose dose of 2.67 g/kg/day was efficacious in the rat and non-human primate. Therefore, it is contemplated that an efficacious dose for humans includes 2.67 g/kg which is estimated to produce a trehalose plasma Cmax of ˜10000 ng/ml. From the rat data it is also clear that a dose of 0.89 g/kg will be ineffective.

[5] = system: Transgenic α-synuclein mouse; details: 2% trehalose in drinking water; Tanji et al. 2015; cited from earlier work
[6] = Plasma, brain and CSF trehalose levels in macaques after 17 weeks administration; type: in vivo, cynomolgus monkeys (Macaca fascicularis); details: 2.67 g/kg/day p.o. 17 weeks; for concentration at 1 h: female, cynomolgus monkey, po, 1 h after final administration
From the text: Twenty-five (25), female cynomolgus monkeys (Macaca fascicularis, 8.0-9.3 years of age, 3.2-4.4 kg) were split into 3 groups (n=8-9/group) and received stereotaxic injection of AAV vectors,either a vector expressing mutant A53T human alpha-synculein (AAV1/2-A53T-alpha-synuclein) or an empty vector (AAV1/2-EV), Genedetect, Auckland, New Zealand) into the substantia nigra. The A53T aSyn expressed is of the human sequence the AAV1/2-EV is a control vector of the same serotype and viral construction. Precise stereotaxic coordinates for all surgeries were calculated prior to surgery from individual monkey MRI scans. Injections containing the AAV1/2-A53T-alpha-synuclein or empty vector were made at a speed of 0.5 μl/min and a volume of 7 μl (at a viral titre of 1.7×10^12 active particles per ml) into 4 sites of each hemisphere of the substantia nigra. Commencing on the day of surgery and continuing for 17 weeks, macaques received either vehicle (sterile drinking water) or trehalose (2.67 g/kg/day) administered as a single daily administration (2.67 g/kg/day, p.o). The macaques were then killed and striatal tissue from both hemispheres was collected and analysed for dopamine and dopamine transporter (DAT) levels. Substantia nigra tissue was collected and analysed for the number of TH^+ve cells and the amount of αSYN measured. Plasma, CSF and brain (cerebellum) samples were collected and trehalose levels analysed by LC-MS/MS.
Single plasma, brain and CSF samples were collected 1 h after the final administration of trehalose. One-hour post-dose corresponds to approximately the Tmax of orally administered trehalose in macaques. The plasma, brain and CSF trehalose levels were 2449±884 ng/ml, 129±35 ng/g and 33±9 ng/ml respectively.

Rotenone-lesioned rat = details: 2% trehalose in drinking water; Wu et al. 2015; cited from earlier work
[7] = Plasma and brain pharmacokinetics in rats, 1 and 7 days oral administration; type: in vivo, Sprague-Dawley rats; details: for AUC(0-t): read-out: AUC0-12h
Protocol: One hundred Sprague-Dawley rats (200-260 g), female (60) and male (40), received trehalose (2.67 g/kg/day, oral gavage in sterile water) for 1 or 7 days. Groups of 5 rats (3 female, 2 male) were sacrificed at pre-dose and 15 min, 30 min, 1 h, 1.5 h, 2 h, 3 h, 4 h, 8 h and 12 h post-dose on days 1 and 7 and plasma and brain samples collected. Plasma and brain samples were analysed for trehalose levels using a validated LC-MS/MS method and plasma exposure timecourses (FIG. 1) and pharmacokinetic parameters were calculated (Table 6). Brain levels of trehalose were approximately 1% of plasma levels at all time-points (FIG. 1).

MPTP-lesioned mouse = details: 2% trehalose in drinking water; Sarkar et al. 2014; cited from earlier work
[8] = 2.67 g/kg/day, 2.67 g/kg/day p.o., Day 1
[9] = 2.67 g/kg/day, 2.67 g/kg/day p.o., Day 7
[10] = 5.34 g/kg/day, 5.34 g/kg/day p.o., Day 1
[11] = 5.34 g/kg/day, 5.34 g/kg/day p.o., Day 7
[12] = both sexes, Sprague-Dawley, po, rat brain, Day 1, 2.67 g/kg p.o.
[13] = both sexes, Sprague-Dawley, po, rat brain, Day 7, 2.67 g/kg/day p.o.
[14] = both sexes, Sprague-Dawley, po, rat plasma, Day 1, 2.67 g/kg p.o.
[15] = both sexes, Sprague-Dawley, po, rat plasma, Day 7, 2.67 g/kg/day p.o.

OC[C@H]1O[C@H](O[C@H]2O[C@H](CO)[C@@H](O)[C@H](O)[C@H]2O)[C@H](O)[C@@H](O)[C@@H]1O [trehalose, (2R,3S,4S,5R,6R)-2-(Hydroxymethyl)-6-[(2R,3R,4S,5S,6R)-3,4,5-trihydroxy-6-(hydroxymethyl)oxan-2-yl]oxyoxane-3,4,5-triol]
Effect (behavioural) [1]: No behavioural
Effect on dopamine levels [1]: effect. Some
AUC(0-inf) [2, 8]: 27400 ng·h/mL
Cmax [2, 8]: 10900 ng/mL
Tmax [2, 8]: 49.8 min
half-life [2, 8]: 66 min
AUC(0-t) [2, 8]: 26700 ng·h/mL
AUC(0-inf) [2, 9]: 27400 ng·h/mL
Cmax [2, 9]: 9580 ng/mL
Tmax [2, 9]: 40.2 min
half-life [2, 9]: 90 min
AUC(0-t) [2, 9]: 26000 ng·h/mL
AUC(0-inf) [2, 10]: 80000 ng·h/mL
Cmax [2, 10]: 37000 ng/mL
Tmax [2, 10]: 40.2 min
half-life [2, 10]: 108 min
AUC(0-t) [2, 10]: 78900 ng·h/mL
AUC(0-inf) [2, 11]: 57200 ng·h/mL
Cmax [2, 11]: 22400 ng/mL
Tmax [2, 11]: 49.8 min
half-life [2, 11]: 138 min
AUC(0-t) [2, 11]: 56500 ng·h/mL
trehalose in plasma ~8 h post-dose ([2]; macaques, oral administration, ~8 h post-dose): No trehalose was measurable
concentration at 1 h ([3]; CSF, 1 h post-administration on day 2, read-out: CSF trehalose level): 562 ± 346 ng/mL
concentration at 1 h ([3]; brain, 1 h post-administration on day 2, read-out: brain trehalose level): 81.3 ± 13.8 ng/g
Kp at 1 h ([3]; brain, 2.67 g/kg, corresponding timepoint (1 h), read-out: brain trehalose level as % of plasma level): ~0.01
Cmax [4]: ~10000 ng/mL
Effect (autophagy) [5]: Increased
correlation of trehalose level in the CSF with level in the brain [6]: significantly correlated
concentration at 1 h ([6]; CSF, read-out: CSF trehalose level): 33 ± 9 ng/mL
concentration at 1 h ([6]; brain (cerebellum), read-out: brain trehalose level): 129 ± 35 ng/g
concentration at 1 h ([6]; plasma, read-out: plasma trehalose level): 2450 ± 884 ng/mL
Effect (Rotenone-lesioned rat): Neuroprotection
AUC(0-inf) [7, 12]: 97 ng·h/mL
Cmax [7, 12]: 87 ng/mL
Tmax [7, 12]: 15 min
half-life [7, 12]: 48.6 min
AUC(0-t) [7, 12]: 86.8 ng·h/mL
AUC(0-inf) [7, 13]: 76.2 ng·h/mL
Cmax [7, 13]: 73 ng/mL
Tmax [7, 13]: 15 min
half-life [7, 13]: 63.6 min
AUC(0-t) [7, 13]: 65.3 ng·h/mL
AUC(0-inf) [7, 14]: 11100 ng·h/mL
Cmax [7, 14]: 8900 ng/mL
Tmax [7, 14]: 15 min
half-life [7, 14]: 45.6 min
AUC(0-t) [7, 14]: 10900 ng·h/mL
AUC(0-inf) [7, 15]: 9880 ng·h/mL
Cmax [7, 15]: 8340 ng/mL
Tmax [7, 15]: 15 min
half-life [7, 15]: 53.4 min
AUC(0-t) [7, 15]: 9490 ng·h/mL
Kp ([7]; both sexes, Sprague-Dawley, rat, brain, po, rats, 2.67 g/kg/day p.o., all time-points, read-out: Brain levels of trehalose as % of plasma levels): ~0.01
trehalose in plasma or brain 8 h post-dose ([7]; rats, 2.67 g/kg/day p.o., 8 h post-dose): no longer detectable; also recorded: No trehalose is found
Effect (MPTP-lesioned mouse): Neuroprotection
